{"source": "patent US20210177941A1", "about": "“COMPOSITIONS FOR CHANGING BODY COMPOSITION, METHODS OF USE, AND METHODS OF TREATMENT” (Board of Supervisors of Louisiana State University and …, priority 2014, published 2021)", "key": {"FoxO3 mRNA": {"tested_on": "FoxO3 mRNA", "assay": "FoxO3 mRNA expression in RMS13 cells", "format": "cell-based, human", "conditions": "24 h; pramlintide 1 mm, albuterol 0.25 mm, P/A 1 mm/0.25 μm", "procedure": "(§1) Working in concert with UPS signaling is the myostatin pathway. By binding to ActRIIB, myostatin activates type-1 activin receptor serine kinases, ALK4 or ALK5, which phosphorylate Smads 2 and −3 (key biomarkers) to exert changes in gene transcription (above figure). […] To measure pathways regulating muscle atrophy and protein syntheses, the following key mRNA biomarkers were assayed: 1) Atrophy: MSTN, Atrogin-1, MuRF1, FoxO1, FoxO3, ALK4, Smad 1, Smad 3; 2) Anabolic: IGF1R, PGC1a, PGC1b, mitochondrial-FAM.\n(§2) All RMS13 cells were treated for 24 hours with single or combination doses (n=10 each group). […] However, there was a strong trend for down regulation in P/A; […] treated cells for MuRF1 (34±7 vs. 22±5, p=0.068; PBS control vs. P/A; 1 mm/0.25 μm respectively) and Smad3 (91 ±9 vs. 73±9, p=0.055; PBS control vs. P/A; 1 mm/0.25 μm respectively)."}, "IGF1R mRNA": {"tested_on": "IGF1R mRNA", "assay": "IGF1R mRNA expression in RMS13 cells", "format": "cell-based, human", "conditions": "24 h; pramlintide 1 mm, albuterol 0.25 mm, P/A 1 mm/0.25 μm", "procedure": "as §1, §2"}, "[1]": {"tested_on": "Atrogin-1, MuRF1, FoxO1, ALK4, Smad 1, Smad 3, PGC1b and TFAM mRNA", "assay": "myoblast transcriptome biomarker panel in RMS13 cells", "format": "cell-based, human", "conditions": "24 h; albuterol 0.25 mm, pramlintide 1 mm, P/A 1 mm/0.25 μm", "procedure": "as §1, §2"}, "[2]": {"assay": "In Vivo Study 1: body weight and body composition by NMR, 8 weeks", "set-up": "species or system B6 mice", "conditions": "for muscle gain and body fat reduction: monotherapy: pramlintide 30 and 60 mg/kg/day, albuterol 24 mg/day", "procedure": "Based on our in vitro experiments, we hypothesized that we could synergize muscle gain and improved biology with a combination of low doses of amylin (or agonist) and albuterol (or agonist). This study determined the effect of daily peripheral administration of pramlintide for 2-months on body weight, body composition and food intake in healthy, elderly mice.\nMurine subjects were divided into seven treatment groups (total n=12): Group 1) SC […] vehicle (PBS); Group 2) SC 15 mg/kg/mouse of pramlintide; Group 3) SC 30 mg/kg/mouse of pramlintide; Group 4) SC 60 mg/kg/mouse of pramlintide; […]); Group 6) Albuterol 0.250 mg/kg. […]\nThe mice were housed in single cages with a 12:12 light cycle, and allowed ad libitum access to food and water throughout the experiment. On day-1 food was weighed and an amount sufficient to last weekly intervals was provided. For the first two-weeks, food intake and body weight were monitored daily and thereafter biweekly for the remainder of the experiment. Body composition by NMR-spectroscopy was the primary endpoint, measured at Day-1 and at the end of the protocol (8-weeks). At Day-5, the mice were randomized to treatment and control groups, such that each group had the same mean body weight. Mice were allowed to acclimate for 5-days to being the sole mouse in the cage. Each day mice were dosed 1 hour after lights on, and the 2nd dosing two hours prior to lights out when mice initiate feeding. Pramlintide was taken directly from the FDA-approved Symlin drug (pramlintide acetate) obtained through the Pennington Biomedical Research Center (PBRC) pharmacy. Final injection volumes were […] for vehicle or drugs. Symlin was supplied as a sterile drug at 0.6 mg/ml. All doses were adjusted according to this concentration.\nFood intake in grams was measured manually each 24 hours. Body Composition was determined via NMR using a Bruker mini-spec system designed for rat or mouse. Animals were transported in microisolater covered cages to the designated room containing the NMR. […]"}, "PGC1a mRNA": {"tested_on": "PGC1a mRNA", "assay": "PGC1a mRNA expression in RMS13 cells", "format": "cell-based, human", "conditions": "24 h; pramlintide 1 mm, albuterol 0.25 mm, P/A 1 mm/0.25 μm", "procedure": "as §1, §2"}, "[3]": {"assay": "7-week placebo controlled study in young, healthy BL-male mice", "format": "in vivo", "conditions": "for lean body mass (LBM): all treatment-arms (Gr 2-7); for bodyweight from baseline and relative to placebo control: pramlintide 30 and 60 mg/kg (Gr 3, 4), Salbutamol 24 mg (Gr 5), combinations (Gr 6, 7)", "procedure": "In a recent pharmacology assessment in young, healthy BL-male mice, we completed a 7-week placebo controlled (Gr 1) study with treatment-arms that included the use of pramlintide alone at low (Gr 2. 15 mg/kg); mid (Gr 3. 30 mg/kg) and high (Gr 4. 60 mg/kg) or Salbutamol alone (Gr 5. 24 mg) or combined with Pramlintide (Gr 6. 15 mg/kg +12 mg of Salbutamol; Gr 7. 30 mg/kg +12 mg of Salbutamol)."}, "myostatin mRNA": {"tested_on": "myostatin mRNA", "assay": "myostatin mRNA expression in RMS13 cells", "format": "cell-based, human", "procedure": "as §1, §2\nPramlintide is chiefly used as an adjunct […] in type 1 and type 2 diabetes to help manage glycemia. The action of the two hormones complements one another to better control glucose metabolism and energy balance. We investigated whether pramlintide with or without insulin could modulate myostatin (key biomarker) mRNA. […] This negative result provides important rationale for both preclinical and clinical study designs (see below). Amylin is thought to function as a neuroendocrine hormone (Young, 1997) and has been shown over many decades to have an effect of lowering food intake. When given intracerebroventricularly (icv), amyl in reduces food intake and body weight in rodents in a dose-dependent manner (Rushing et al., 2001). […] Amylin is thought to regulate energy balance by inhibiting postprandial glucagon secretion and slowing the rate of nutrient delivery to the small intestine via an effect on gastric emptying. The rate of gastric emptying also plays a major role in blood glucose homeostasis in normal subjects by controlling the delivery of carbohydrate to the small intestine and the regulation of body weight (Reda et al., 2002). It has been proposed that amylin's effect on gastric emptying may be exerted via a central mechanism involving specific binding sites in the area postrema of the brain stem (Cline et al., 2008), and that the effect is mediated by the vagus nerve rather than a direct action on the stomach and digestion (D'Este et al., 1995; Maev and Dicheva, 2003). We have previously shown that the use of modified-pharmaceutical grade cellulose is able to dramatically slow the rate of gastric emptying and improve the lean-to-fat ratio in mice (Islam et al., 2012).\nCalcitonin can be used therapeutically for the treatment of hypercalcemia or osteoporosis. Both calcitonin and amylin bind the same trimetric-calcitonin-ramp-receptor. An increased incidence of pituitary adenomas has been reported in rats given synthetic salmon calcitonin for 1 year. Calcitonin may be used diagnostically as a tumor marker for medullary thyroid cancer; also, elevated levels after surgery may indicate recurrence. Calcitonin may even be assayed in biopsy samples from suspicious lesions (e.g., lymph nodes that are swollen) to establish whether they are a metastasis of the original cancer (Bruera and Fainsinger, 1997; Busquets et al., 2012b). We next examined the dose-dependence relationship between the concentration of calcitonin and myostatin mRNA expression."}, "[4]": {"conditions": "in vivo; cited from earlier work"}, "human myoblast": {"tested_on": "human myoblast", "assay": "human myoblast treated 24 h with pramlintide, biomarkers", "format": "cell-based", "conditions": "24 h pramlintide", "description": "Although not intending to be bound by theory, we hypothesize the amylin pathway has a role in the regulation of muscle mass in mammals and the use of pramlintide will result in improved body composition and increase muscle mass in healthy humans by lowering the production of myostatin and increasing protein synthesis via mTOR activation."}, "[5]": {"tested_on": "mammalian target of rapamycin (mTOR)", "assay": "mTOR activation in human myoblast RMS13 cells", "format": "cell-based", "conditions": "pramlintide alone at 1 and 5 mm, 24 h, both p<0.05", "description": "We first examined the association between a pramlintide and albuterol formulation (single and combination dosing) on the activity of the mammalian target of rapamycin (mTOR) in a human myoblast cell model derived from RMS13 cells (purchased from ATCC, Manassas, Va., USA). mTOR is a highly conserved kinase that exists in two functional complexes, TOR complex 1 (TORC1) and TOR complex 2 (TORC2), that are conserved from yeast to mammals. Given its high conservation across species, mTOR serves as a key biomarker for protein synthesis. mTOR (TORC1 and TORC 2) is a master kinase that is crucial for cell growth and is a chief enzyme in protein synthesis (Otulakowski et al., 2007). Determining optimal ratios and concentrations of each drug (in single or combination) was an important first step to guide the mechanism of action biomarker studies. This initial study was undertaken for 24 and 48 hours; only the 24-hour results are shown (n=6 each group)."}, "myostatin secretion": {"tested_on": "myostatin secretion", "assay": "myostatin secretion into RMS13 myoblast culture media", "format": "cell-based, human", "conditions": "pramlintide 1 mm (p=0.061); P/A 1 mm/0.25 mm (p<0.05, greatest suppression)", "description": "Myostatin's main sites of actions are muscle and bone in a catabolic fashion. Both IGF1 and amylin have roles in regulating osteoblast-bone proliferation (Cornish et al., 2004; Cornish and Naot, 2002) and muscle mass. […] Although not intending to be bound by theory, we hypothesize that amylin alone and in combination with albuterol is able to directly suppress myostatin secretion in myoblasts."}, "[6]": {"conditions": "24 h, pramlintide 1 mm, albuterol 0.25 mm, P/A 1 mm/0.25 μm"}, "[7]": {"conditions": "calcitonin dose-dependence, pramlintide 5 mm, p<0.05"}}, "note": "Ends that are not written are not given here."}
{"compound": "CC(C)(C)NCC(O)c1ccc(O)c(CO)c1", "note": "(stereo not shown) [albuterol]", "values": [{"measurement": "FoxO3 mRNA expression", "setting": "FoxO3 mRNA", "result": "down regulated"}, {"measurement": "IGF1R mRNA expression", "setting": "IGF1R mRNA", "result": "up regulated"}, {"measurement": "Atrogin-1, MuRF1, FoxO1, ALK4, Smad 1, Smad 3, PGC1b and TFAM mRNA", "setting": "[1]", "result": "no change"}, {"measurement": "muscle gain and body fat reduction", "setting": "[2]", "result": "Statistical improvements in muscle gain and body fat reduction"}, {"measurement": "PGC1a mRNA expression", "setting": "PGC1a mRNA", "result": "up regulated"}, {"measurement": "lean body mass (LBM)", "setting": "[3]", "result": "significantly increased"}, {"measurement": "bodyweight from baseline and relative to placebo control", "setting": "[3]", "result": "significant increases in bodyweight"}, {"measurement": "myostatin mRNA expression", "setting": "myostatin mRNA; [6]", "result": "no effect"}]}
{"compound": "calcitonin (CGNLSTCMLGTYTQDFNKFHTFPQTAIGVGAP; ends and bridges not checked; cysteine pairing not given here; UniProt P01258 85-116, looked up)", "values": [{"measurement": "myostatin mRNA expression", "setting": "myostatin mRNA; [7]", "result": "did not modulate myostatin mRNA"}]}
{"compound": "insulin", "values": [{"measurement": "myostatin mRNA, pramlintide with or without insulin", "setting": "myostatin mRNA; co-incubation of insulin with pramlintide", "result": "no additive benefit"}]}
{"compound": "pramlintide acetate", "values": [{"measurement": "FoxO3 mRNA expression", "setting": "FoxO3 mRNA", "result": "significantly lowered"}, {"measurement": "T-1/2-life", "setting": "[4]", "result": "~45", "unit": "min"}, {"measurement": "IGF1R mRNA expression", "setting": "IGF1R mRNA", "result": "up regulated"}, {"measurement": "myostatin and FoxO-1/-3 mRNA", "setting": "human myoblast", "result": "down regulation of myostatin"}, {"measurement": "pro-anabolic targets (PGC1a, calcineurin mRNA and AkT and mTOR-activity)", "setting": "human myoblast", "result": "elevation of pro-anabolic targets"}, {"measurement": "mTOR activation", "setting": "[5]", "result": "induced mTOR activation"}, {"measurement": "myostatin secretion into myoblast culture media", "setting": "myostatin secretion", "result": "lowered myostatin secretion"}, {"measurement": "Atrogin-1, MuRF1, FoxO1, ALK4, Smad 1, Smad 3, PGC1b and TFAM mRNA", "setting": "[1]", "result": "no change"}, {"measurement": "muscle gain and body fat reduction", "setting": "[2]", "result": "Statistical improvements in muscle gain and body fat reduction"}, {"measurement": "drop in body weight within the first week", "setting": "[2]; pramlintide 60 mg/kg/day (Group 4)", "result": "−5", "unit": "%"}, {"measurement": "PGC1a mRNA expression", "setting": "PGC1a mRNA", "result": "up regulated"}, {"measurement": "lean body mass (LBM)", "setting": "[3]", "result": "significantly increased"}, {"measurement": "bodyweight from baseline and relative to placebo control", "setting": "[3]", "result": "significant increases in bodyweight"}, {"measurement": "myostatin mRNA expression", "setting": "myostatin mRNA; [6]", "result": "significantly lowered"}, {"measurement": "myostatin mRNA expression", "setting": "myostatin mRNA; [7]", "result": "able to lower myostatin mRNA"}]}
